Publication PMC11928584, “H105A peptide eye drops promote photoreceptor survival in murine and human models of retinal degeneration” (Communications Medicine, 2025)
Where a SMILES comes first, the peptide text is derived from it.

Test system: human iPSC-derived retinal organoids exposed to CSE
Experiment: Ethidium homodimer staining of live retinal organoids (3D-ARQ)
Type: cell-based
Settings: D180 ROs, 24 h, mean ± SD, n=14
Description: Human iPSCs were differentiated into retinal organoids (ROs) following the protocol by Zhong et al.[41]. Briefly, on Day 0, hiPSC colonies were dissociated with dispase and grown in a suspension to form embryoid bodies, and slowly transitioned to neural induction media (DMEM/F12 (1:1), 1% N2 supplement (Invitrogen), 1 x minimum essential media-nonessential amino acids (NEAAs), 2 µg/ml heparin (Sigma)). On Day 7, EBs were seeded on Matrigel coated plates and maintained in neural induction media. On Day 16, the media was switched to the retinal differentiation medium (DMEM/F12 (3:1), 2% B27 (without vitamin A, Invitrogen), 1x NEAA and 1% antibiotic–antimycotic (Gibco)). Retinal domains were identified and lifted manually with tungsten needles between Day 21 and Day 26 under a phase contrast microscope. On day 30, the culture medium was transitioned to DMEM/F12 (3:1) with 2% B27, 1x NEAA, 1% antibiotic–antimycotic, 10% fetal bovine serum (FBS; Gibco), […] Taurine (Sigma), and 2 mM GlutaMAX (Invitrogen). Additionally, 1 µM retinoic acid supplement was introduced daily starting from day 63. […]
After treatment, ROs were washed in PBS (Gibco, 14190-144) and the auto-fluorescent background was measured by 3D-automated reporter quantification (3D-ARQ)[42], using a Tecan Spark Plate reader (SparkControl v2.3). The Z-position was determined manually by selecting the individual well and fluorescent intensity was measured using the optimized parameters below. […] After incubation, ROs were washed three times with PBS, and fluorescence intensity was measured by 3D-ARQ using the following parameters: Mode: Fluorescent top reading; Wavelength for PSVue-794: Excitation: Emission 730:820 nm, Excitation bandwidth: 10 nm, Emission bandwidth: 15 nm; Wavelength for Ethidium Homodimer: Excitation: Emission 530:630 nm, Excitation bandwidth: 5 nm, Emission bandwidth: 5 nm; Gain: 160, Manual; Number of flashes: 20; integration time: 40 µs; lag time 0 µs. […] Results were analysed after background subtraction; n = 19-24 ROs per condition. […]

| Compound | Fluorescence intensity of Ethidium homodimer (CSE 500 µg/ml + peptide 20 nM) | Fluorescence intensity of Ethidium homodimer (CSE 500 µg/ml + peptide 1 nM) |
| --- | --- | --- |
| CC[C@H](C)[C@H](NC(=O)[C@H](CC(C)C)NC(=O)[C@H](CC(=O)O)NC(=O)[C@H](Cc1ccc(O)cc1)NC(=O)[C@H](Cc1ccc(O)cc1)NC(=O)[C@H](CC(C)C)NC(=O)[C@H](C)NC(=O)[C@H](CCCNC(=N)N)NC(=O)[C@H](Cc1c[nH]cn1)NC(=O)[C@@H](NC(=O)[C@@H](NC(=O)[C@H](CO)NC(=O)[C@H](CCC(=O)O)NC(=O)[C@@H](NC(=O)[C@H](C)NC(=O)[C@@H](N)CCC(N)=O)[C@@H](C)O)[C@@H](C)CC)[C@@H](C)CC)C(=O)N[C@@H](CO)C(=O)O [R99A] (H-QATESIIHRALYYDLIS-OH) | 1283.2 ± 67.6 RFU | – |
| CC[C@H](C)[C@H](NC(=O)[C@H](CC(C)C)NC(=O)[C@H](CC(=O)O)NC(=O)[C@H](Cc1ccc(O)cc1)NC(=O)[C@H](Cc1ccc(O)cc1)NC(=O)[C@H](CC(C)C)NC(=O)[C@H](C)NC(=O)[C@H](CCCNC(=N)N)NC(=O)[C@H](C)NC(=O)[C@@H](NC(=O)[C@@H](NC(=O)[C@H](CO)NC(=O)[C@H](CCC(=O)O)NC(=O)[C@@H](NC(=O)[C@H](CCCNC(=N)N)NC(=O)[C@@H](N)CCC(N)=O)[C@@H](C)O)[C@@H](C)CC)[C@@H](C)CC)C(=O)N[C@@H](CO)C(=O)O [H105A] (H-QRTESIIARALYYDLIS-OH) | 919.2 ± 46.0 RFU | 848.9 ± 51.0 RFU |
